{"source": "patent US20090306023A1", "about": "“STABLE ORGANIC PEROXIDE COMPOSITIONS” (priority 2005, published 2009)", "origin": "cited, not measured here", "details": "room temperature", "data": [{"smiles": "O=C(O)c1ccccc1O", "note": "[Salicylic acid, 2-hydroxybenzoic acid]", "values": [{"measurement": "limit of solubility in water", "result": "approximately 0.2%"}]}]}
